# Laboratory results as given in publication PMC12695923, “The role of N185D substitution in enhancing activity of BaqA∆C α-amylase” (Scientific Reports, 2025).
# Target: T1, BaqAΔC (Rossellomorea aquimaris, UniProt G8IJA7)
# T1 construct: gene baqA
# T1 sequence (G8IJA7 24-478): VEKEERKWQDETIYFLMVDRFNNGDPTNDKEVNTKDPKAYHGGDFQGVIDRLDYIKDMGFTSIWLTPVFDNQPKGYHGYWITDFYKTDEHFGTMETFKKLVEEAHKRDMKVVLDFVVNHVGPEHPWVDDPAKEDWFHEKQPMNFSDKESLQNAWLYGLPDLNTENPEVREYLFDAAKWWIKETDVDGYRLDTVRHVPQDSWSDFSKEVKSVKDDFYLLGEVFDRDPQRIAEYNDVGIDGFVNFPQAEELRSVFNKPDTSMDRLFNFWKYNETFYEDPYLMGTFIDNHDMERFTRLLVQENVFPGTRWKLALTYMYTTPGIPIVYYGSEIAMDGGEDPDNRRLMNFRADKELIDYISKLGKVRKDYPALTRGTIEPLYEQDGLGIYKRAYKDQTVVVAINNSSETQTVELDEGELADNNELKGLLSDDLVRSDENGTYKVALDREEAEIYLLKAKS
# Test: intrinsic fluorescence quenching, modified Stern-Volmer plot
# Assay type: binding
# Conditions: 50 mM HEPES pH 8; 15 min at 50 °C, spectra at 25 °C; n = 1.3; acarbose 15-75 mM
smiles,measurement,value
C[C@H]1O[C@H](O[C@H]2[C@H](O)[C@@H](O)[C@@H](O[C@H]3[C@H](O)[C@@H](O)C(O)O[C@@H]3CO)O[C@@H]2CO)[C@H](O)[C@@H](O)[C@@H]1N[C@H]1C=C(CO)[C@@H](O)[C@H](O)[C@H]1O (stereo partly shown) [acarbose],Ka,0.032 mL/mg
